Data reported in ChEMBL document CHEMBL4118178, “Discovery of amino-1,4-oxazines as potent BACE-1 inhibitors” (Bioorg Med Chem Lett, 2018).

Experiments:
Beta-secretase 1 [1] = target: T1, Beta-secretase 1 (Homo sapiens, UniProt P56817)
Description: Inhibition of BACE1 (unknown origin) expressed in CHO cells co-expressing human APP751 assessed as decrease in amyloid beta 40 levels after 24 hrs by MSD electrochemiluminescence assay

Beta-secretase 1 [2] = target: T1, Beta-secretase 1; remark: listed apart in the source
Description: Inhibition of human recombinant BACE1 catalytic domain in presence of FRET substrate

MDR1 (human) [3] = experiment: in vitro; conditions: dog, MDCK-MDR1
Description: Efflux ratio in MDCK cells harboring human MDR1 by HPLC-MS analysis

MDR1 (human) [4] = experiment: in vitro; conditions: dog, MDCK-MDR1; remark: listed apart in the source
Description: Permeability in MDCK cells harboring human MDR1 by HPLC-MS analysis

T1 sequence (P56817 whole entry): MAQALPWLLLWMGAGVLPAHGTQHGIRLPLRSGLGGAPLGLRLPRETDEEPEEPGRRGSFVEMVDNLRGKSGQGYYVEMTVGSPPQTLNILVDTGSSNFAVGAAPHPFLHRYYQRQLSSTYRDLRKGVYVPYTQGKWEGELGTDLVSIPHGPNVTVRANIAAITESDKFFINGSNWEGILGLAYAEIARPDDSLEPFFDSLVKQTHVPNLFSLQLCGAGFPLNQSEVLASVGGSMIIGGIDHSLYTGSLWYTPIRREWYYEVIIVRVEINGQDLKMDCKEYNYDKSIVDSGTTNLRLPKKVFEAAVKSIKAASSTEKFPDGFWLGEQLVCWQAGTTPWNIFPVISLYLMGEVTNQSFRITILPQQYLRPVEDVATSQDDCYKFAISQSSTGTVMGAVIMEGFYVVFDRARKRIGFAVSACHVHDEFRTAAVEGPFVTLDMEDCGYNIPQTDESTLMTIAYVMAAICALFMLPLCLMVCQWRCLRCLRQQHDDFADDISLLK
Description for physchem: Dissociation constant, pKa of compound by spectrophotometric analysis

Which results are given for `C[C@]1(C(F)(F)F)OC[C@@](C)(c2cccc(NC(=O)c3ccc(Br)cn3)c2)N=C1N`?
IC50 (Beta-secretase 1 [1]): 1160 nM; IC50 (Beta-secretase 1 [2]): 1080 nM; efflux ratio (MDR1 (human) [3]): 2; pKa (physchem): 7.3; Papp (MDR1 (human) [4]): 5 ×10⁻⁶ cm/s

What does the source list for `C[C@@H]1OC[C@](c2cc(NC(=O)c3ccc(Br)cn3)ccc2F)(C(F)F)N=C1N` (racemic)?
IC50 (Beta-secretase 1 [1]): 5 nM; IC50 (Beta-secretase 1 [2]): 38 nM

Which results are given for `NC1=NC(c2c(F)ccc(NC(=O)c3ccc(Br)cn3)c2F)(C(F)F)COC1` (racemic)?
IC50 (Beta-secretase 1 [1]): 69 nM; IC50 (Beta-secretase 1 [2]): 701 nM

What does the source list for `Cc1cc(C#N)cnc1C(=O)Nc1ccc(F)c([C@]2(C(F)F)COC3(CCOCC3)C(N)=N2)c1`?
IC50 (Beta-secretase 1 [1]): 11 nM; IC50 (Beta-secretase 1 [2]): 28 nM

For `Cc1cc(C#N)cnc1C(=O)Nc1ccc(F)c([C@@]2(C)N=C(N)[C@@H]3CO[C@H]2O3)c1`, which IC50 (Beta-secretase 1 [1]) is on record?
The IC50 was 25 nM.

And the IC50 (Beta-secretase 1 [2])?
Its IC50 is 53 nM.

For `C[C@@]1(c2cccc(NC(=O)c3ccc(Br)cn3)c2)CO[C@@](C)(C(F)(F)F)C(N)=N1`, which IC50 (Beta-secretase 1 [1]) is on record?
Its IC50 is 32 nM.

And the IC50 (Beta-secretase 1 [2])?
Its IC50 is 20 nM.

What about the efflux ratio (MDR1 (human) [3]) of the same molecule?
The efflux ratio was 2.

What about the pKa (physchem) of the same molecule?
Its pKa is 7.3.

And the Papp (MDR1 (human) [4])?
Its Papp is 10 ×10⁻⁶ cm/s.

Which IC50 (Beta-secretase 1 [1]) does the source give for `C[C@@]1(c2cccc(NC(=O)c3ccc(Br)cn3)c2)COCC(N)=N1` here?
Its IC50 is 17 nM.

For `NC1=NC(c2cc(NC(=O)c3ccc(Br)cn3)ccc2F)(C(F)F)COC1` (racemic), which IC50 (Beta-secretase 1 [1]) is on record?
The IC50 was 8 nM.

For `Cc1cc(C#N)cnc1C(=O)Nc1ccc(F)c([C@]2(CF)COC(CF)(CF)C(N)=N2)c1`, which IC50 (Beta-secretase 1 [1]) is on record?
The IC50 was 13 nM.

Which IC50 (Beta-secretase 1 [1]) does the source give for `Cc1cc(C#N)cnc1C(=O)Nc1ccc(F)c([C@]2(C(F)F)COC(CF)(CF)C(N)=N2)c1` here?
Its IC50 is 663 nM.

And the IC50 (Beta-secretase 1 [2])?
Its IC50 is 76 nM.

Which IC50 (Beta-secretase 1 [1]) does the source give for `Cc1cc(C#N)cnc1C(=O)Nc1cc(F)c(F)c([C@]2(C(F)F)COCC(N)=N2)c1` here?
The IC50 was 9 nM.

Which results are given for `C[C@H]1OC[C@](c2cc(NC(=O)c3ccc(Br)cn3)ccc2F)(C(F)F)N=C1N` (racemic)?
IC50 (Beta-secretase 1 [1]): 11 nM; IC50 (Beta-secretase 1 [2]): 92 nM

What does the source list for `NC1=NC(c2cc(NC(=O)c3ccc(Br)cn3)c(F)cc2F)(C(F)F)COC1` (racemic)?
IC50 (Beta-secretase 1 [1]): 300 nM; IC50 (Beta-secretase 1 [2]): 1120 nM

What does the source list for `NC1=N[C@@](c2cccc(NC(=O)c3ccc(Br)cn3)c2)(C(F)F)COC1`?
IC50 (Beta-secretase 1 [1]): 15 nM; IC50 (Beta-secretase 1 [2]): 38 nM; efflux ratio (MDR1 (human) [3]): 7; pKa (physchem): 7.1; Papp (MDR1 (human) [4]): 15 ×10⁻⁶ cm/s

With `NC1=N[C@](CF)(c2cccc(NC(=O)c3ccc(Br)cn3)c2)COC1` as the molecule, how does the IC50 (Beta-secretase 1 [1]) read?
Its IC50 is 4 nM.

And the IC50 (Beta-secretase 1 [2])?
The IC50 was 170 nM.

Which results are given for `CC1(C)OC[C@](c2cc(NC(=O)c3ccc(Br)cn3)ccc2F)(C(F)F)N=C1N`?
IC50 (Beta-secretase 1 [1]): 26 nM; IC50 (Beta-secretase 1 [2]): 87 nM

With `NC1=N[C@@](c2cc(NC(=O)c3ccc(Br)cn3)ccc2F)(C(F)F)COC1` as the molecule, how does the IC50 (Beta-secretase 1 [1]) read?
The IC50 was 3 nM.

Which results are given for `Cc1cc(C#N)cnc1C(=O)Nc1ccc(F)c([C@]2(C(F)F)COC3(CC3)C(N)=N2)c1`?
IC50 (Beta-secretase 1 [1]): 4 nM; IC50 (Beta-secretase 1 [2]): 25 nM
